Test [1] relates to collagen-induced arthritis (CIA) in mice. In words: Antibody-mediated collagen-induced arthritis in mice. Type of test: in vivo. To be noted: 20 mg/kg i.p. twice daily.
Procedure: The murine CIA model used in this study is called antibody-mediated CIA, and can be induced by i.v. injection of a combination of different anti-type II collagen monoclonal antibodies (Terato K., et al. (1995). Autoimmunity. 22:137).
In this example, arthrogen-collagen-induced arthritis antibody kits were purchased from Chemicon International (Temecula, Calif.) and arthritis was induced using the manufacturer's protocol. Mice were injected i.v. with a cocktail of 4 anti-collagen Type II monoclonal antibodies (0.5 mg each) on day 0, followed by i.p. injection of 25 μg lipopolysaccharide (LPS) on day 2. Mice develop swollen wrists, ankles, and digits 3-4 days after LPS injection, with disease incidence of 90% by day 7. Severity of arthritis in each limb was scored for 12 days as follows: 0=normal; 1=mild redness, slight swelling of ankle or wrist; 2=moderate redness and swelling of ankle or wrist; 3=severe redness and swelling of some digits, ankle and paw; 4=maximally inflamed limb. Animals were divided in 3 groups of 6 animals: vehicle, methotrexate (MTX)-treated, and compound-treated. Animals in the vehicle group were injected i.p. with phosphate buffer saline (PBS), twice daily for 12 days (starting on day 0). MTX (3 mg/kg) was administered i.p. starting on day 0 and continuing every other day (Mon., Weds., Fri.) for the duration of the experiment.
For each of the two sets of data (arthritis score and paw swelling), a repeated measure analysis was performed to assess the treatment effect.
The relative RT-PCR approach was used. To perform this experiment, a kit from Ambion (USA) was used that employs 18S ribosomal RNA (rRNA) as an internal control. In addition to the rRNA primers, the kit also provides specific primers for the amplification of the different cytokines to be analyzed. […] At the end of the study, animals were euthanized and the right hind paws were extracted and frozen. Total RNA was isolated using 1 ml of Trizol reagent (Invitrogen, USA) per 50-100 mg tissue according to the manufacturer's instructions. […]
For test [2], the system named is oxazolone-induced colitis in SJL/J mice. The procedure:
Oxazolone colitis is induced as described (Fuss I. J. et al. (2002) J. Immunol. 168: 900). Briefly, mice are pre-sensitized by skin epicutaneous application of 3% oxazolone (4-ethoxymethylene-2-phenyl-2oxazolin-5-one, Sigma) in 100% EtOH (150 μl) on day 0, followed by intrarectal administration of 1% oxazolone in 50% EtOH (100 μl) to anesthetized SJL/J male mice on day 5 through a 3.5 F catheter inserted 4 cm proximal to the anal verge. Mice are divided in three treatment groups and injected i.p. twice a day with: PBS and a compound of the invention. Injections are initiated at day 0 and are continued through day 7 or the end of the study.
A study was carried out using the protocol in Example 20 for oxazolone-induced colitis. Injections were initiated at day 0 and were continued through the end of the study. Disease progression was evaluated for 12 days (6 days after intrarectal administration) by monitoring survival rates and body weight, as well as by macroscopic evidence of colitis (i.e. rectal prolapse, colon size, colon weight). (2-phenylallyl)hydrazine was administered at 10 mg/kg, i.p. twice a day, starting on the day of skin pre-sensitization (day 0). […] Kaplan-Meyer survival curves and unpaired t tests were calculated using GraphPad Prism software (San Diego, Calif.).
Thus, animals from a similar study were sacrificed seven days after initial sensitization and their colons removed and fixed in […]. Tissue processing and analysis were performed blindly at a contract laboratory (Pathology Associates, Frederick, Md.). Briefly, after paraffin embedding 5 μm sections were cut and stained with hematoxylin and eosin. Three cross sections were taken from each animal at 1 cm (section 1), 3 cm (section 2), and 6 cm (section 3) from the anus. The degrees of ulceration, inflammation (in mucosa, submucosa, serosa, and outer muscular layers) and epithelial injury (including mucosal and submucosal abscess, submucosal fibrosis, glandular distortion and mucosal and submucosal edema/hemorrhage), were graded semiquantitatively as 0—absent; 1—minimal; 2—mild; 3—moderate; 4—marked. […] Kaplan-Meyer survival curves were calculated using GraphPad Prism software (San Diego, Calif.).

In test [3] the test system is LPS-induced endotoxemia in C57B1/6J female mice. In words: LPS-induced endotoxemia and LPS/D-galactosamine shock. The test is classed as in vivo. To be noted: for survival, first 14 hours: LPS 2 mg/kg + D-galactosamine 300 mg/kg i.p., PBS 40%. The procedure: Eight female mice per group received i.p. injections of 5 mg/kg LPS. […] Dexamethasone (3 mg/kg) was administered i.p. at the same time. Blood was collected 1, 2, 4, and 8 hours after LPS injection and circulating TNF-α and IL-6 levels were measured by ELISA (R&D Systems). Asterisk * indicates p<0.01.
Survival data for the first 14 hours is presented.
In sepsis exposure of endothelial cells of all organs to elevated levels of LPS and inflammatory cytokines leads to upregulation of adhesion molecules and chemokines, which results in an increase in the tethering, rolling and transmigration of leukocytes (Pawlinski R. et al. (2004) Blood 103:1342). LPS-induced endotoxemia is a well-characterized model of systemic inflammation and thus can be used to investigate the putative role of SSAO inhibition in these inflammatory mechanisms. Sepsis was induced in C57B1/6J female mice by i.p. administration of 5 mg/kg of LPS. […] Dexamethasone was administered i.p, at a concentration of 3 mg/kg 1 hr prior to disease induction. Blood was drawn from the retroorbital plexus of anesthetized animals and sera was collected and frozen until time of cytokine measurements. IL-1β, TNF-α, and IL-6 concentrations were determined by ELISA using commercial kits (R&D Systems, Minneapolis, Minn.) according to the manufacturer's instructions. […] Data were analyzed with GraphPad Prism software (San Diego, Calif.) by Dunnett's test following analysis of variance. […] 2 mg/kg LPS together with 300 mg/kg D-galactosamine (GalN, Sigma), both dissolved in PBS, were administered to mice by i.p. injection. At the indicated time points animals from the different therapeutic groups received 200 μl of vehicle (PBS) or 30 mg/kg (2-phenylallyl)hydrazine by oral administration.

Setting [4] is: 10 mg/kg i.p. twice a day from day 0, vs vehicle.
Where [5] appears, read: day 7, 20 mg/kg/day from day 0, section 2.
Setting [6] is: 50 mg/kg orally 60 min prior to 5 mg/kg LPS i.p.

The structures appear in SMILES notation. Where a name gives a salt, the structure may show the parent alone.

For the compound `C=C(CNN)c1ccccc1` [Example 2, Hydrochloride], in test [1] (day 0-11, p=0.0046 vs PBS), the final arthritis score result is listed as “clearly reduced”. For the same compound, in test [1] (day 0-11, p=0.0060 vs PBS), the paw swelling result is on record as “clearly reduced”. Further, the “levels of TNFα mRNA in the paws (relative RT-PCR, TNFα:18S rRNA)” value in test [1] (right hind paws at end of study) is “able to reduce”. In test [2] (setting [4]), the body weight loss result is recorded as “significantly improved” and the survival rates result is given as “significantly improved”. In addition, in test [2] (setting [5]), the “inflammatory index (histology)” value was “significant effect” and the “ulceration index (histology)” value is given as “significant effect”. Further, in test [3] (setting [6]), the “levels of circulatory IL-6” value is “significantly reduced” and the “levels of circulatory TNF-α” value is listed as “significantly reduced”. In addition, the “survival, first 14 hours” value in test [3] (30 mg/kg oral at 0 and 8 hours (2×)) stood at 80%. For the same compound, in test [3] (30 mg/kg oral once (1×)), the “survival, first 14 hours” value was 60%.

These data come from patent US20050096360A1, “Inhibitors of semicarbazide-sensitive amine oxidase (SSAO) and VAP-1 mediated adhesion useful for treatment of diseases” (priority 2003, published 2005).
